# In US20060177517A1, “Antiinflammtory agent and antiinflammatory medical material” (priority 2003, published 2006):
# How the values were obtained:
# [1] = test system: human neutrophils; assay: IL-1β production by human neutrophils treated with GMDP and/or polyphosphoric acid (ELISA); assay type: cell-based
# Method: To confirm the effect of suppressing inflammatory cytokine production with the polyphosphoric acid obtained according to the above production example, an experiment was conducted to observe IL-1β production using human neutrophils. Neutrophils were separated from 25 ml of human blood and then suspended in a Dulbecco's Modified Eagle's Medium. […] Treatment was carried out for maximum of 5 hours at 37° C. […] The IL-1β production amount at each time point was measured using an ELISA Kit.
# [2] = test system: Streptococcus mutans JC2 strain; assay: Suppression of intraoral bacteria growth, absorbance at 595 nm; assay type: cell-based; details: 24 hours after treatment
# Method: A test of suppression of bacterial growth with the polyphosphoric acid obtained according to the above production example was conducted using intraoral bacteria, Streptococcus mutans (S. mutans) and Porphylomonas gingivalis (P gingivalis). The S. mutans JC2 strain was anaerobically cultured at 37° C. using Heart infusion media. For the treated groups, polyphosphoric acid was added to the culture solutions at different concentrations (0%, 0.06%, and 0.5%). For comparison groups, phosphate buffers were added at different concentrations (0%, 0.06%, and 0.5%) to culture solutions. The bacteria were cultured for a maximum of 2 days. […] In the meantime, the P. gingivalis ATCC33277 strain was anaerobically cultured using brain-heart-infusion media at 37° C. for the same time period as employed above by adding polyphosphoric acid at different concentrations (0%, 0.015%, 0.03%, 0.06%, 0.12%, 0.25%, and 0.5%) to culture solutions. Bacterial growth was observed over time by measuring absorbance at 595 nm.
# [3] = test system: periodontal tissue inflammation; assay: Suppression of periodontal tissue inflammation in rat artificial periodontal pockets (HE staining); assay type: in vivo, Wister rats; details: approx. 0.1 ml of 1% solution injected into gingival crevice every day for 10 days
# Method: Male Wister rats (8-week-old; 10 rats in total) were anesthetized, and then the periosteum of the alveolar part of maxillary first molar tooth was stripped. Portions of approximately 2 mm were eliminated from the buccal alveolar apexes of the maxillary first molar tooth and of the maxillary second molar tooth, using a ½ round bar, thereby forming artificial periodontal pockets (gingival crevices). In the case of the treated group (5 rats), approximately 0.1 ml of 1% polyphosphoric acid solution was injected into each gingival crevice using a syringe. Furthermore, in the case of the comparison group (5 rats), only a 1% phosphate buffer was injected. This injection procedure was carried out every day for 10 days from the day following the operation for the preparation of gingival crevices. Rats that had been treated for a certain time period were euthanized under inhalation anesthesia (ether). The maxilla bones were amputated, and then the tissues were fixed for 1 day by immersion using 10% neutral buffered formalin (pH 7.4). Subsequently, the resultants were subjected to acid demineralization at room temperature for approximately 2 days. After completion of demineralization, the samples were trimmed by excision at the second molar tooth, and then paraffin-embedded with their cut surfaces positioned downward. […]
# [4] = test system: P. gingivalis ATCC33277 strain; assay: Suppression of intraoral bacteria growth, absorbance at 595 nm; assay type: cell-based, Porphylomonas gingivalis; details: polyphosphoric acid concentration of 0.01%, 48 hours after treatment
# Method: A test of suppression of bacterial growth with the polyphosphoric acid obtained according to the above production example was conducted using intraoral bacteria, Streptococcus mutans (S. mutans) and Porphylomonas gingivalis (P gingivalis). The S. mutans JC2 strain was anaerobically cultured at 37° C. using Heart infusion media. For the treated groups, polyphosphoric acid was added to the culture solutions at different concentrations (0%, 0.06%, and 0.5%). For comparison groups, phosphate buffers were added at different concentrations (0%, 0.06%, and 0.5%) to culture solutions. […] Bacterial growth was observed over time by measuring absorbance at 595 nm.
# [5] = test system: inflammation at wound site; assay: Suppression of inflammation at wound site, rat dorsal wound model (HE staining); assay type: in vivo, Wistar rat; details: 1% solution locally injected 5 days a week
# From the text: The dorsum of each 6-week-old male Wistar rat was shaved under ether anesthesia, and then a 20-mm incision was made along the long axis of the body with a depth reaching to the fascia. Both ends of the center of the wound were stitched to the fascia using a piece of string so as to produce a 5-mm-wide spindle-shaped wound model (FIG. 4). A 1% polyphosphoric acid solution was locally injected 5 days a week into each wound of the rats in the treated group. A 1% phosphate buffer was locally injected 5 days a week into each wound of the rats in the comparison group. The rats were euthanized on days 3 and 7. Tissue located in the area extending from 5 mm to the left of and 5 mm to the right of the wound center was obtained by excising skin on the fascia as shown in FIG. 4. The tissues were subjected to HE staining and then histopathological observance was carried out.
compound,measurement,setting,value
"CC(=O)NC1C(OC2C(CO)OC(O)C(NC(C)=O)C2OC(C)C(=O)NC(C)C(=O)NC(CCC(=O)O)C(N)=O)OC(CO)C(O)C1O [GMDP, N-Acetyl-D-Glucosaminyl-β(1-4)-N-acetylmuramyl-L-alanyl-D-isoglutamine, reference compound]",IL-1β production amount,"[1]; 30 μg GMDP alone, up to 5 hours",increased with time
"O=P(O)(O)O [phosphoric acid, reference compound]",bacterial growth of S. mutans,[2]; phosphoric acid concentration of 0.5%,no large changes
polyphosphoric acid,IL-1β production amount,"[1]; GMDP plus polyphosphoric acids (0.2, 1, 5 mM), 5 hours after treatment",decreased depending on the concentrations of the polyphosphoric acids
same,IL-1β production amount,"[1]; GMDP plus polyphosphoric acids (0.2, 1, 5 mM), until 3 hours after treatment, versus GMDP alone",suppressed to a level similar to that of the comparison group
same,IL-1β production amount,"[1]; polyphosphoric acids alone (0.2, 1, 5 mM), no GMDP",almost the same at any polyphosphoric acid concentration as that in the case of the comparison group
same,inflammatory cells in the peripheries of the treated sites,[3],Almost no inflammatory cells were observed
same,bacterial growth of S. mutans,[2]; polyphosphoric acid concentration of 0.06%,significantly suppressed bacterial growth
same,bacterial growth of P. gingivalis,[4],significantly suppressed bacterial growth
same,extension of the epithelia toward the centers of the wounds,[5]; day 3 after operation,significant extension
same,infiltration by inflammatory cells at the wound,[5]; day 3 after operation,infiltration by inflammatory cells decreased
same,epithelialization of the wound surfaces,[5]; day 7 after operation,almost completely epithelialized
same,"extension of the epithelia at the cut ends of the wounds, compared with the comparison group",[5]; day 7 after operation,promoted
same,inflammation at the centers of the wounds,[5]; day 7 after operation,inflammation remained slight and partial on the upper parts
